Here are results for 4 compounds from US20120165408A1, “ORAL COMPOSITION FOR ALLEVIATING ROUGH SKIN” (Shiseido Company, Ltd., priority 2009, published 2012).

Assay [1] relates to skin barrier function in SDS-treated mice. The experiment in a line: Rough skin experiment, short term (11-day) oral administration: transepidermal water loss after SDS treatment. Format: in vivo, HR-1 hairless mice. The conditions noted are these: for Δ(delta) TEWL value: difference from the negative control (Dunnett's test, p<5%): 2 hours after the second SDS treatment. The method, then: HR-1 hairless mice (males, seven-week old, Hoshino Laboratory Animals, Inc.) were subjected to the experiment. Each experimental group included seven to eight mice.
In order to examine the effect of the amino acid on the rough skin, 1 mM or 10 mM D-glutamic acid was given with drinking water. The negative control employed was drinking water containing no D-glutamic acid.
An unwoven fabric soaked with a 10% SDS solution was brought into contact for five minutes with one side of the back of a mouse under anesthesia (hereinafter referred to as “SDS treatment”) on the 10th and 11th days after starting the administration of D-glutamic acid. The SDS treatment may be conducted two to five times repetitively until the rough skin becomes evident. In this Example, the SDS treatments on the 10th and 11th days after starting the administration of D-glutamic acid are referred to as the first and the second SDS treatments, respectively. Also in the following transepidermal water loss measurements, an area treated with SDS is referred to as an “SDS treated area,” while an area of the opposite side which was not treated with SDS is referred to as an “SDS non-treated area.”
In order to quantify the rough skin condition, the transepidermal water loss was measured immediately before the first SDS treatment (before SDS treatment) and two hours after the first and the second SDS treatments using a transepidermal water loss meter (Tewameter TM-300, manufactured by Courage+Khazaka electronic GmbH) in accordance with the instruction provided by the manufacturer. Here, the value obtained by subtracting the quantity of the transepidermal water loss of the SDS non-treated area from the quantity of the transepidermal water loss of the SDS treated area was regarded as a “Δ(delta) TEWL value.”
The error bars for relevant experimental conditions are the standard deviations of the measured values of the results of the experiments seven to eight times under identical conditions. The asterisk (*) indicates p<5% by Dunnett's test.

Assay [2] shares this test system. The experiment in a line: Rough skin experiment, long term (28-day) oral administration: transepidermal water loss after SDS treatment. The class given is in vivo, HR-1 hairless mice. The conditions noted are these: 10 mM in drinking water, two hours after the second SDS treatment (28th day); for Δ(delta) TEWL value: negative control 2.4. The method, then:
The administration of the amino acid, the rough skin experiments and the quantification of the transepidermal water loss were conducted similarly to Example 1 using the HR-1 hairless mice described above. The amino acid employed was 10 mM L- or D-glutamic acid or L- or D-glutamine. The negative control employed was drinking water containing no amino acid. The SDS treatment was conducted on the 27th and 28th days after starting the administration of the amino acid. In this Example, the SDS treatments on the 27th and 28th days after starting the administration of the amino acid described above are referred to as the first and the second SDS treatments, respectively. The quantification of the transepidermal water loss was conducted two hours after the second SDS treatment.
The error bars for relevant experimental conditions are the standard deviations of the measured values of the results of the experiments repeated five times under identical conditions. The asterisk (*) indicates p<5% by Dunnett's test.

Consider `N[C@H](CCC(=O)O)C(=O)O` [D-glutamic acid], for which the “Δ(delta) TEWL value: difference from the negative control (Dunnett's test, p<5%)” value in assay [1] (1 mM in drinking water), in assay [1] (10 mM in drinking water) and in assay [2] was “significant difference” throughout. The “Δ(delta) TEWL value” came out at 0.4 g/m^2/h in assay [1] (1 mM in drinking water, immediately before the first SDS treatment (10th day), negative control 0.7); 1.5 g/m^2/h in assay [1] (1 mM in drinking water, two hours after the first SDS treatment (10th day), negative control 2.2); 3.2 g/m^2/h in assay [1] (1 mM in drinking water, two hours after the second SDS treatment (11th day), negative control 7.0); 0.1 g/m^2/h in assay [1] (10 mM in drinking water, immediately before the first SDS treatment (10th day), negative control 0.7); 1.2 g/m^2/h in assay [1] (10 mM in drinking water, two hours after the first SDS treatment (10th day), negative control 2.2); 3.8 g/m^2/h in assay [1] (10 mM in drinking water, two hours after the second SDS treatment (11th day), negative control 7.0). For the same compound, the “Δ(delta) TEWL value” in assay [2] was −0.9 g/m^2/h.

Consider `NC(=O)CC[C@H](N)C(=O)O` [L-glutamine], for which, in assay [2], the “Δ(delta) TEWL value: difference from the negative control (Dunnett's test, p<5%)” value is recorded as “no significant difference” and the “Δ(delta) TEWL value” is 2.3 g/m^2/h.

On to `N[C@@H](CCC(=O)O)C(=O)O` [L-glutamic acid], for which, in assay [2], the “Δ(delta) TEWL value: difference from the negative control (Dunnett's test, p<5%)” value was “no significant difference” and the “Δ(delta) TEWL value” is listed as 1.1 g/m^2/h.

In the case of `NC(=O)CC[C@@H](N)C(=O)O` [D-glutamine], in assay [2], the “Δ(delta) TEWL value: difference from the negative control (Dunnett's test, p<5%)” value was “no significant difference” and the “Δ(delta) TEWL value” is on record as 3.3 g/m^2/h.
